Measured values taken from ChEMBL document CHEMBL1139762, “Novel substituted tetrahydrotriazaacenaphthylene derivatives as potent CRF1 receptor antagonists” (Bioorg Med Chem Lett, 2007).

Tests used:
[1] = target: T1, Corticotropin-releasing factor receptor 1 (Homo sapiens, UniProt P34998); experiment: Displacement of [125I]CRF from human recombinant CRF1 receptor expressed in CHO cell membrane; type: cell membranes
T1 sequence (P34998 whole entry): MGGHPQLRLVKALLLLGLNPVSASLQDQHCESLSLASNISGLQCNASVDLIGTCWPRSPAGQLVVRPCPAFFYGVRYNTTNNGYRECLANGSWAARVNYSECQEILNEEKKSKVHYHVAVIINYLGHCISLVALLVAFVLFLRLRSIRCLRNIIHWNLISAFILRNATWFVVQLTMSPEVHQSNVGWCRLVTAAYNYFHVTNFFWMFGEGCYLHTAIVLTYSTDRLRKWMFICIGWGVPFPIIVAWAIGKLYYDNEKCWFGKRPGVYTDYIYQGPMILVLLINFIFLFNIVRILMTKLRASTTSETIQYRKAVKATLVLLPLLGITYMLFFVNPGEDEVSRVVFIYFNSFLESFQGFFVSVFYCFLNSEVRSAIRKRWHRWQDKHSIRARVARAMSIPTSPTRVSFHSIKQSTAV

[2] = Half life in Sprague-Dawley rat at 1 mg/kg, po and 0.4 mg/kg, iv; type: ADME, organism-based; details: in vivo
[3] = Oral bioavailability in Sprague-Dawley rat at 1 mg/kg; type: ADME, organism-based; details: in vivo
[4] = Plasma clearance in Sprague-Dawley rat at 1 mg/kg, po and 0.4 mg/kg, iv; type: ADME, organism-based
[5] = Volume of distribution at steady state in Sprague-Dawley rat at 1 mg/kg, po and 0.4 mg/kg, iv; type: ADME, organism-based; details: in vivo, read-out: Vdss
[6] = AUC in Sprague-Dawley rat at 1 mg/kg, po and 0.4 mg/kg, iv; type: ADME, organism-based; details: plasma

| IC50 [1] [nM] | half-life [2] [h] | bioavailability [3] [%] | clearance [4] [mL/min/kg] | Vd [5] [L/kg] | AUC [6] [ng·h/mL] | Structure (SMILES) |
| --- | --- | --- | --- | --- | --- | --- |
| 12.6 | – | – | – | – | – | CCC(CC)n1cc2c3c(nc(C)cc31)N(c1ccc(OC)cc1C)CC2 |
| 158 | – | – | – | – | – | CCC(COC)n1cc2c3c(nc(C)cc31)N(c1ccc(OC)cc1C)CC2 (stereo not drawn) |
| 79.4 | – | – | – | – | – | CCC(CC)n1cc2c3c(nc(C)cc31)N(c1ccc(OC(F)(F)F)cc1C)CC2 |
| 63.1 | – | – | – | – | – | CCC(CC)n1cc2c3c(nc(C)cc31)N(c1ccc(OC)cc1)CC2 |
| 39.8 | – | – | – | – | – | CCC(COC)n1cc2c3c(nc(C)cc31)N(c1ccc(C#N)cc1C)CC2 (stereo not drawn) |
| 12.6 | – | – | – | – | – | CCC(CC)n1cc2c3c(nc(C)cc31)N(c1ccc(C#N)cc1C)CC2 |
| 126 | – | – | – | – | – | CCCC(CCC)n1cc2c3c(nc(C)cc31)N(c1ccc(OC)cc1C)CC2 |

Second part, the compound before the results:

| Structure (SMILES) | IC50 [1] [nM] | half-life [2] [h] | bioavailability [3] [%] | clearance [4] [mL/min/kg] | Vd [5] [L/kg] | AUC [6] [ng·h/mL] |
| --- | --- | --- | --- | --- | --- | --- |
| CCCC(CCC)n1cc2c3c(nc(C)nc31)N(c1ccc(C(F)(F)F)cc1C(F)(F)F)CC2 | 15.8 | – | – | – | – | – |
| CCC(CC)n1cc2c3c(nc(C)nc31)N(c1ccc(C(F)(F)F)cc1C(F)(F)F)CC2 | 25.1 | – | – | – | – | – |
| CCCC(CCC)N1CCC2CN(c3ccc(Cl)cc3Cl)c3nc(C)nc1c32 (stereo not drawn) | 31.6 | – | – | – | – | – |
| CCCC(CCC)n1cc2c3c(nc(C)nc31)N(c1ccc(C#N)cc1C)CC2 | 50.1 | – | – | – | – | – |
| CCCC(CCC)n1cc2c3c(nc(C)cc31)N(c1ccc(OC)c(F)c1)CC2 | 39.8 | 8.6 | 37 | 47 | 24 | 131 |
| CCC(CC)n1cc2c3c(nc(C)cc31)N(c1ccc(C(F)(F)F)cc1C(F)(F)F)CC2 | 126 | 7.6 | 28 | 21 | 6.8 | 222 |
| CCCC(CCC)n1cc2c3c(nc(C)cc31)N(c1ccc(C(F)(F)F)cc1C(F)(F)F)CC2 | 100 | 5.3 | 71 | 8 | 2.5 | 1480 |
| CCC(CC)n1cc2c3c(nc(C)cc31)N(c1ccc(OC)c(F)c1)CC2 | 50.1 | – | – | – | – | – |
| CCCC(CCC)n1cc2c3c(nc(C)cc31)N(c1ccc(C#N)cc1C)CC2 | 3.98 | 6.7 | < 5 | 54 | 17 | < 15 |
| COCC(COC)Nc1nc(C)nc2c(-c3ccc(Cl)cc3Cl)c(C)nn12 | 39.8 | – | – | – | – | – |
| CCCCN(CC)c1nc(C)nc2c1c(C)cn2-c1c(C)cc(C)cc1C [CP-154526] | 15.8 | – | – | – | – | – |
